Read-outs that look alike come from different tables or passages of the source.
Assays:
Format in all cases: in vivo
[1] = system: Eleocharis kuroguwai (ELOKU); test: Weed spectrum in paddy field, ELOKU; details: 20 g/ha; tubers planted 4 cm deep; applied after 5 days; observed two weeks
Experimental: (§1) Suitable herbicidal compositions were prepared by mixing and dissolving 1 part by weight of the active compound with 5 parts by weight of acetone and 1 part by weight of alkylaryl polyglycolether as an emulsifier and then diluting with water to the predetermined concentration. Application was made by dropping the herbicide solutions onto the water surface of the pots.
(§2) Pots having a surface area of 500 cm^2 were filled with the soil in a muddy state as mentioned above. Seeds of annual weeds such as Monochoria vaginaiis (MOOVA), Lindernia procumbens (LIDPR), Rotala indica (ROTIN), Scirpus jumcoides (SCPJU), etc. were sown on the surface layer of soil, and then were planted tubers of perennial weeds such as Cyperus serotinus (CYPSE) and Sagittaria pygmaea (SAGPY) in a depth of 1 cm, and Eleocharis kuroguwai (ELOKU) and Sagittaria trifolia (SAGTR) in a depth of 4 cm. After 5 days, the chemicals were formulated as mentioned above and applied by dropping to the water surface of the pots.

[2] = system: Lindernia procumbens (LIDPR); test: Weed spectrum in paddy field, LIDPR; details: 20 g/ha; applied 5 days after sowing; observed two weeks
Experimental: as §1, §2

[3] = system: Sagittaria pygmaea (SAGPY); test: Weed spectrum in paddy field, SAGPY; details: 20 g/ha; tubers planted 1 cm deep; applied after 5 days; observed two weeks
Experimental: as §1, §2

[4] = system: Sagittaria trifolia (SAGTR); test: Weed spectrum in paddy field, SAGTR; details: 20 g/ha; tubers planted 4 cm deep; applied after 5 days; observed two weeks
Experimental: as §1, §2

Oryza sativa = test: Phytotoxicity to rice (direct-seeded and transplanted) in paddy condition, greenhouse pot test; details: visual rating after two weeks; for Phytotoxicity, Oryza sativa, Seed: direct-seeded rice, treated 5 days after sowing; for Phytotoxicity, Oryza sativa, Transplanted: transplanted rice seedlings, treated 5 days after transplanting
Excerpt: (§3) Pots having a surface area of 150 cm^2 were filled with a small amount of fertilizer and sterilized paddy field soil in a muddy state with a depth of 5 cm. Five (5) seeds of pre-germinated rice were directly sown on the soil surface and three (3) rice seedlings (2˜3 leaves) prepared in advance were transplanted in a depth of 2 cm in each pot. In another pot, seeds of barnyardgrass were sown and incorporated into the surface layer of soil. After sowing and transplanting of rice plant and sowing of barnyardgrass, the pots were flooded with water 3 cm deep and kept in a greenhouse. The rice plant was treated with the chemicals 5 days after sowing or transplanting, and barnyardgrass was treated with the chemicals at the pre-emergence (5 days after from sowing) and post-emergence stage (at the three-leaf stage, usually after 15 days from sowing).
as §1

[5] = system: Scirpus jumcoides (SCPJU); test: Weed spectrum in paddy field, SCPJU; details: 20 g/ha; applied 5 days after sowing; observed two weeks
Experimental: as §1, §2

Echinochloa crus-galli = test: Herbicidal activity to barnyardgrass in paddy condition, pre- and post-emergence, greenhouse pot test; details: Echinochloa crus-galli, 336 h, visual rating after two weeks
Excerpt: as §3, §1

Rotala indica (ROTIN) = test: Weed spectrum in paddy field, ROTIN; details: 20 g/ha; applied 5 days after sowing; observed two weeks
Experimental: as §1, §2

[6] = system: Monochoria vaginaiis (MOOVA); test: Weed spectrum in paddy field, MOOVA; details: 20 g/ha; applied 5 days after sowing; observed two weeks
Experimental: as §1, §2

[7] = system: Cyperus serotinus (CYPSE); test: Weed spectrum in paddy field, CYPSE; details: 20 g/ha; tubers planted 1 cm deep; applied after 5 days; observed two weeks
Experimental: as §1, §2

[8] = 80 g/ha, 0 = none, 100 = complete death
[9] = post-emergence, three-leaf stage, read-out: Herbicidal activity, Echinochloa crus-galli, Post-emergence (3-Leaf stage)
[10] = pre-emergence (5 days after sowing), read-out: Herbicidal activity, Echinochloa crus-galli, Pre-emergence
[11] = pre-emergence (5 days after sowing), 0 = no activity, 100 = complete death, read-out: Herbicidal activity, Echinochloa crus-galli, Pre-emergence

COCCC(=O)O[C@H](c1ncccc1S(=O)(=O)NC(=O)Nc1nc(OC)cc(OC)n1)[C@H](C)F [Com. 4]
Weed spectrum, Perennial weeds, ELOKU [1]: 95
Weed spectrum, Annual weeds, LIDPR [2]: 100
Weed spectrum, Perennial weeds, SAGPY [3]: 90
Weed spectrum, Perennial weeds, SAGTR [4]: 85
Phytotoxicity, Oryza sativa, Seed (Oryza sativa; 10 g/ha): 0%
Phytotoxicity, Oryza sativa, Transplanted (Oryza sativa; 10 g/ha): 0%
Phytotoxicity, Oryza sativa, Seed (Oryza sativa; 20 g/ha): 0%
Phytotoxicity, Oryza sativa, Transplanted (Oryza sativa; 20 g/ha): 0%
Phytotoxicity, Oryza sativa, Seed (Oryza sativa; 40 g/ha): 20%
Phytotoxicity, Oryza sativa, Transplanted (Oryza sativa; 40 g/ha): 10%
Phytotoxicity, Oryza sativa, Seed (Oryza sativa; [8]): 30%
Phytotoxicity, Oryza sativa, Transplanted (Oryza sativa; 80 g/ha): 20%
Weed spectrum, Annual weeds, SCPjU [5]: 100
pest or weed control at 5 g/ha (Echinochloa crus-galli; [9]): 60%
pest or weed control at 5 g/ha (Echinochloa crus-galli; [10]): 60%
pest or weed control at 10 g/ha (Echinochloa crus-galli; [9]): 90%
pest or weed control at 10 g/ha (Echinochloa crus-galli; [10]): 95%
pest or weed control at 20 g/ha (Echinochloa crus-galli; [9]): 100%
pest or weed control at 20 g/ha (Echinochloa crus-galli; [10]): 100%
pest or weed control at 30 g/ha (Echinochloa crus-galli; [9]): 100%
pest or weed control at 30 g/ha (Echinochloa crus-galli; [11]): 100%
Weed spectrum, Annual weeds, ROTIN (Rotala indica (ROTIN)): 100
Weed spectrum, Annual weeds, MOOVA [6]: 100
Weed spectrum, Perennial weeds, CYPSE [7]: 100

COCC(=O)O[C@H](c1ncccc1S(=O)(=O)NC(=O)Nc1nc(OC)cc(OC)n1)[C@H](C)F [Com. 2]
Weed spectrum, Perennial weeds, ELOKU [1]: 95
Weed spectrum, Annual weeds, LIDPR [2]: 100
Weed spectrum, Perennial weeds, SAGPY [3]: 95
Weed spectrum, Perennial weeds, SAGTR [4]: 90
Phytotoxicity, Oryza sativa, Seed (Oryza sativa; 10 g/ha): 0%
Phytotoxicity, Oryza sativa, Transplanted (Oryza sativa; 10 g/ha): 0%
Phytotoxicity, Oryza sativa, Seed (Oryza sativa; 20 g/ha): 0%
Phytotoxicity, Oryza sativa, Transplanted (Oryza sativa; 20 g/ha): 0%
Phytotoxicity, Oryza sativa, Seed (Oryza sativa; 40 g/ha): 20%
Phytotoxicity, Oryza sativa, Transplanted (Oryza sativa; 40 g/ha): 10%
Phytotoxicity, Oryza sativa, Seed (Oryza sativa; [8]): 30%
Phytotoxicity, Oryza sativa, Transplanted (Oryza sativa; 80 g/ha): 10%
Weed spectrum, Annual weeds, SCPjU [5]: 100
pest or weed control at 5 g/ha (Echinochloa crus-galli; [9]): 50%
pest or weed control at 5 g/ha (Echinochloa crus-galli; [10]): 60%
pest or weed control at 10 g/ha (Echinochloa crus-galli; [9]): 90%
pest or weed control at 10 g/ha (Echinochloa crus-galli; [10]): 100%
pest or weed control at 20 g/ha (Echinochloa crus-galli; [9]): 100%
pest or weed control at 20 g/ha (Echinochloa crus-galli; [10]): 100%
pest or weed control at 30 g/ha (Echinochloa crus-galli; [9]): 100%
pest or weed control at 30 g/ha (Echinochloa crus-galli; [11]): 100%
Weed spectrum, Annual weeds, ROTIN (Rotala indica (ROTIN)): 100
Weed spectrum, Annual weeds, MOOVA [6]: 100
Weed spectrum, Perennial weeds, CYPSE [7]: 100

— patent US6806229B1, “Herbicidally active pyridine sulfonyl urea derivatives” (LG Life Sciences, priority 2003, dated 2004)
